From patent US20140235544A1, “DISEASE TREATMENT VIA ANTIMICROBIAL PEPTIDES OR THEIR INHIBITORS” (priority 2013, published 2014)

Columns and labels:
[1] = Infection and immunity, November 1999; cited from earlier work
BETATC beta cell line = assay: Thymidine incorporation cell proliferation assay; format: cell-based, mouse; settings: 2 microgram/ml, 3.5 days
Description: Murine beta cell line were treated for 3.5 days with LL-37 at 2 microgram/ml (red/dark bars) and compared to PBS control ([…]). Cell proliferation was estimated by measuring [3(H)]-thymidine incorporation and was expressed as percent of control untreated cells. A representative experiment is shown.
The antimicrobial peptides human cathelicidin LL-37: […] was obtained from AnaSpec, USA (Catalogue numbers: 61302). Cathelicidin at 2 ug/ml was added to the plate and compared with control.
Cell proliferation was evaluated by measuring [3(H)]-thymidine incorporation into DNA. Cells were pulsed with [3(H)]-thymidine (1 microcurie/mL, ICN, Irvine, Calif.) for 1 hour, at 37 degrees centigrade. After incubation, cells were washed 3 times with PBS, incubated for 15 minutes at room temperature in 5% trichloroacetic acid and solubilized in 1% triton X-100. The radioactivity incorporated into the cells was counted in the [3(H)]-window of a Tricarb liquid scintillation counter. Mean values were determined from measurements of triplicate samples under each experimental condition for each experiment. Thymidine incorporation was determined as number of disintegrations per minute (DPM) per mg of protein.

[2] = system: psoriatic lesions in a human subject; assay: Human in-vivo psoriatic lesion treatment
Description: Human in-vivo psoriatic lesion treatment: Cathelicidin 10 ug/ml or human beta defensin-2 diluted in PBS containing 0.1% BSA, or buffer carrier was applied to lesions in a human subject in a blind trial.

[3] = 10 ug/ml applied to lesion, 5 days treatment

Substance | half-life in blood of humans [1] | beta cell proliferation ([3(H)]-thymidine incorporation) vs PBS control (BETATC beta cell line) | change of skin psoriatic lesion [2, 3] | change of skin psoriatic lesion ([2]; applied to lesion, seven week course of treatment)
LLGDFFRKSKEKIGKEFKRIVQRIKDFLRNLVPRTES [LL-37] | approximately 3.4 days | significant BETATC beta cell line proliferation | slight improvement | 
SKEKIGKEFKRIVQRIKDFLRNLVPRTES (listed as Homo sapiens) [SK29, cathelicidin fragment, 29 amino acids] |  |  | slight improvement | 
human beta defensin-2 [reference compound] |  |  |  | worsening
